Experimental data reported in ChEMBL document CHEMBL6134890, “Terminally Symmetric β-Turn Peptides for Multidrug-Resistant Bacterial Infections” (J Med Chem, 2025).
Activity calls are given as the source filed them. Peptide text beside a SMILES is read from it.

Key:
[1] = system: Staphylococcus aureus; assay: Antimicrobial activity against Staphylococcus aureus ATCC 25923 assessed as reduction in bacterial growth by broth dilution method; assay type: functional
[2] = system: Staphylococcus epidermidis; assay: Antimicrobial activity against multi-drug resistant Staphylococcus epidermidis assessed as reduction in bacterial growth by broth dilution method; assay type: functional
[3] = system: Escherichia coli; assay: Antimicrobial activity against multi-drug resistant Escherichia coli assessed as reduction in bacterial growth by broth dilution method; assay type: functional
[4] = system: Klebsiella pneumoniae; assay: Antimicrobial activity against multi-drug resistant Klebsiella pneumoniae assessed as reduction in bacterial growth by broth dilution method; assay type: functional
[5] = system: Acinetobacter baumannii; assay: Antimicrobial activity against multi-drug resistant Acinetobacter baumannii assessed as reduction in bacterial growth by broth dilution method; assay type: functional
[6] = Hemolytic activity in human Red blood cell assessed as hemolysis incubated for 1 hrs by microplate reader based analysis; assay type: toxicity; conditions: erythrocyte
[7] = system: HEK-293T; assay: Cytotoxicity against HEK293T cells at 2 to 256 uM measured after 24 hrs by CCK-8 method; assay type: toxicity, cell-based; conditions: human, dose 2-256 µM
[8] = system: L02; assay: Cytotoxicity against human LO2 cells at 2 to 256 uM measured after 24 hrs by CCK-8 method; assay type: toxicity, cell-based; conditions: l02, 24 h, dose 2-256 µM
[9] = system: Staphylococcus aureus; assay: Antimicrobial activity against multi-drug resistant Staphylococcus aureus assessed as reduction in bacterial growth in presence of NaCl; assay type: functional, organism-based
[10] = system: Escherichia coli; assay: Antimicrobial activity against multi-drug resistant Escherichia coli assessed as reduction in bacterial growth in presence of MgCl2; assay type: functional, organism-based
[11] = system: Staphylococcus aureus; assay: Antimicrobial activity against multi-drug resistant Staphylococcus aureus assessed as reduction in bacterial growth measured after 6 hrs in 25% plasma; assay type: functional, organism-based
[12] = system: Escherichia coli; assay: Antimicrobial activity against multi-drug resistant Escherichia coli assessed as reduction in bacterial growth at 2 times MIC measured after 1 hrs in presence of trypsin by microplate reader based analysis; assay type: functional, organism-based
[13] = system: Escherichia coli; assay: Antimicrobial activity against multi-drug resistant Escherichia coli assessed as reduction in bacterial growth at 2 times MIC measured after 1 hrs in presence of chymotrypsin by microplate reader based analysis; assay type: functional, organism-based
[14] = system: Staphylococcus aureus; assay: Antimicrobial activity against multi-drug resistant Staphylococcus aureus assessed as reduction in bacterial growth at 2 times MIC measured after 1 hrs in presence of trypsin by microplate reader based analysis; assay type: functional, organism-based
[15] = system: Staphylococcus aureus; assay: Antimicrobial activity against multi-drug resistant Staphylococcus aureus assessed as reduction in bacterial growth at 2 times MIC measured after 1 hrs in presence of chymotrypsin by microplate reader based analysis; assay type: functional, organism-based
[16] = system: Staphylococcus aureus; assay: Antibacterial activity against Staphylococcus aureus ATCC 25923 at sub-inhibitory concentration measured after 15 passages for 18 hrs; assay type: functional
[17] = system: Escherichia coli; assay: Antibacterial activity against Escherichia coli […] at sub-inhibitory concentration measured after 15 passages for 18 hrs; assay type: functional, organism-based
[18] = system: Staphylococcus aureus; assay: Bactericidal activity against multi-drug resistant Staphylococcus aureus assessed as eradication of bacterial growth at 2 times MIC by time-kill kinetic assay; assay type: functional, organism-based; conditions: time 120-720 min
[19] = system: Escherichia coli; assay: Bactericidal activity against multi-drug resistant Escherichia coli assessed as eradication of bacterial growth at 2 times MIC by time-kill kinetic assay; assay type: functional, organism-based; conditions: time 120-720 min
[20] = system: Escherichia coli; assay: Bactericidal activity against multi-drug resistant Escherichia coli assessed as eradication of bacterial growth at 2 times MIC measured after 3 hrs by time-kill kinetic assay relative to control; assay type: functional
[21] = system: Cell membrane; assay: Disruption of cell membrane in multi-drug resistant Escherichia coli assessed as stomatal formation at 2 times MIC measured for 120 mins by transmission electron microscopy analysis; assay type: subcellular
[22] = system: Cell membrane; assay: Disruption of cell membrane in multi-drug resistant Escherichia coli assessed as appearance of ruptured cell membrane at 2 times MIC measured for 120 mins by transmission electron microscopy analysis; assay type: subcellular
[23] = system: Cell membrane; assay: Disruption of cell membrane in multi-drug resistant Escherichia coli assessed as release of cell content at 2 times MIC measured for 120 mins by transmission electron microscopy analysis; assay type: subcellular
[24] = system: Cell membrane; assay: Disruption of cell membrane in multi-drug resistant Staphylococcus aureus assessed as increase in red fluorescence intensity of PI at 2 times MIC measured for 2 hrs by fluorescence confocal microscopic imaging based analysis; assay type: subcellular
[25] = system: Cell membrane; assay: Disruption of cell membrane in multi-drug resistant Escherichia coli assessed as increase in red fluorescence intensity of PI at 2 times MIC measured for 2 hrs by fluorescence confocal microscopic imaging based analysis; assay type: subcellular
[26] = system: Escherichia coli; assay: Bactericidal activity against multi-drug resistant Escherichia coli at 1 times MIC preincubated with LPS for 1 hrs followed by bacterial addition and measured after 18 hrs by microplate reader based analysis; assay type: functional, organism-based; conditions: time 19.0 hrs
[27] = system: Cell membrane; assay: Induction of cytoplasmic membrane depolarization in multi-drug resistant Escherichia coli at 1 to 4 times MIC measured within 1 min by DiSC3-5 fluorescent dye based analysis
[28] = system: Cell membrane; assay: Induction of cytoplasmic membrane depolarization in multi-drug resistant Staphylococcus aureus at 1 to 4 times MIC measured within 1 min by DiSC3-5 fluorescent dye based analysis
[29] = system: Escherichia coli; assay: Antibacterial activity against Escherichia coli ATCC 25922 infected in male Kunming mouse model assessed as reduction in bacterial load measured after 11 days; assay type: functional, organism-based; conditions: time 11.0 day
[30] = system: Escherichia coli; assay: Antibiofilm activity in […] assessed as eradication of formed biofilm by measuring reduction in viable bacterial count measured after 12 hrs by confocal microscopy based analysis; assay type: functional, organism-based
[31] = system: Staphylococcus aureus; assay: Antibiofilm activity in methicillin-resistant Staphylococcus aureus assessed as eradication of formed biofilm at 1 to 4 times MIC measured after 12 hrs by confocal microscopy based analysis; assay type: functional, organism-based
[32] = system: Escherichia coli; assay: Antibiofilm activity in […] assessed as eradication of formed biofilm at 1 to 4 times MIC measured after 12 hrs by confocal microscopy based analysis; assay type: functional, organism-based
[33] = system: Escherichia coli; assay: Antibacterial activity against Escherichia coli ATCC 25922 infected in male Kunming mouse model assessed as reduction in bacterial load measured after 11 days in presence of levofloxacin; assay type: functional, organism-based; conditions: time 11.0 day
[34] = system: Escherichia coli; assay: Antibacterial activity against multidrug resistant Escherichia coli infected in male Kunming mouse model assessed as recovery of mouse weight measured after 11 days in presence of levofloxacin; assay type: functional, organism-based; conditions: time 11.0 day
[35] = system: Escherichia coli; assay: Antibacterial activity against multidrug resistant Escherichia coli infected in male Kunming mouse model assessed as reduction in wound size measured after 3 to 5 days in presence of levofloxacin by caliper method; assay type: functional, organism-based; conditions: time 3-5 day
[36] = system: Escherichia coli; assay: Antibacterial activity against multidrug resistant Escherichia coli infected in male Kunming mouse model assessed as scabs thickening measured after 7 days in presence of levofloxacin by caliper method; assay type: functional, organism-based; conditions: time 7.0 day
[37] = system: Escherichia coli; assay: Antibacterial activity against multidrug resistant Escherichia coli infected in male Kunming mouse model assessed as scabs thickening measured after 7 days by caliper method; assay type: functional, organism-based; conditions: time 7.0 day
[38] = system: Escherichia coli; assay: Antibacterial activity against multidrug resistant Escherichia coli infected in male Kunming mouse model assessed as wound healing measured after 11 days by caliper method relative to control; assay type: functional; conditions: time 11 day
[39] = system: Escherichia coli; assay: Antibacterial activity against multidrug resistant Escherichia coli infected in male Kunming mouse model assessed as reduction in tissue hemorrhage by H and E staining based analysis; assay type: functional, organism-based
[40] = system: Escherichia coli; assay: Antibacterial activity against multidrug resistant Escherichia coli infected in male Kunming mouse model assessed as reduction in inflammatory cell infiltration in presence of levofloxacin by H and E staining based analysis; assay type: functional, organism-based
[41] = system: Escherichia coli; assay: Antibacterial activity against multidrug resistant Escherichia coli infected in male Kunming mouse model assessed as reduction in IL-6 expression in presence of levofloxacin by immunochemical analysis; assay type: functional, organism-based
[42] = system: Escherichia coli; assay: Antibacterial activity against multidrug resistant Escherichia coli infected in male Kunming mouse model assessed as reduction in IL-6 expression by immunochemical analysis; assay type: functional, organism-based

CC[C@H](C)[C@H](NC(=O)[C@H](CCCCN)NC(=O)[C@@H](NC(=O)[C@H](CCCCN)NC(=O)[C@@H]1CCCN1C(=O)[C@H](Cc1c[nH]c2ccccc12)NC(=O)[C@H](Cc1c[nH]c2ccccc12)NC(=O)[C@H](Cc1c[nH]c2ccccc12)NC(=O)[C@@H]1CCCN1C(=O)[C@H](CCCCN)NC(=O)[C@@H](NC(=O)[C@H](CCCCN)NC(=O)[C@@H](NC(=O)[C@@H](N)CCCCN)[C@@H](C)CC)[C@@H](C)CC)[C@@H](C)CC)C(=O)N[C@@H](CCCCN)C(N)=O (H-KIKIKPWWWPKIKIK-NH2)
Toxic: Activity [7] | Activity [8]
100%: Activity [20] | Activity [38]
> 256 µM: HC10 [6]
inactive: Activity [12] | Activity [13] | Activity [14] | Activity [15] | Activity [26]
active: Activity [9] | Activity [10] | Activity [11] | Activity [16] | Activity [17] | Activity [18] Time-dependent-effect | Activity [19] Time-dependent-effect | Activity [21] | Activity [22] | Activity [23] | Activity [24] | Activity [25] | Activity [27] | Activity [28] | Activity [29] | Activity [30] Dose-dependent-effect | Activity [31] | Activity [32] | Activity [33] | Activity [34] | Activity [35] | Activity [36] | Activity [37] | Activity [39] | Activity [40] | Activity [41] | Activity [42]
4 µM: MIC [2] | MIC [3] | MIC [4] | MIC [5]
8 µM: MIC [1]
